Reference: patent publication US11834467B2, “Substituted indazoles as hematopoietic progenitor kinase 1 (HPK1) inhibitors” (1ST Biotherapeutics, Inc., priority 2020, dated 2023)
Where two headings read alike, the source gives them in different places.

Test system: human peripheral blood pan T cells
Assay: IFNγ and IL-2 secretion analysis of human peripheral pan T cells
Type: cell-based
Conditions: CD3/CD28 stimulation, 100 nM Prostaglandin E2, 24 hr
Description: Human peripheral blood pan T cells were purchased from STEMCELL™ Technologies Inc. Human peripheral blood pan T cells were thawed and suspended in DMEM media (10% FBS and 100 Penicillin/Streptomycin). 8×10^4 T cells were seeded in 96-well plate and incubated with various concentration of compounds and 100 nM Prostaglandin E2 for 1 hr. T cells were stimulated with Dynabeads Human T-Activator CD3/CD28 (Life Technologies) at a 1:3 cells:beads ratio. […] Data were analyzed with an MESO Quickplex SQ120 (Mesoscale Discovery).

[1] = Homo sapiens, T-cell, 24 h, IFNγ secretion, read-out: IFNγ (EC50)
[2] = Homo sapiens, T-cell, 24 h, IL-2 secretion, read-out: IL-2 (EC50)

| Compound | EC50 [1] [nM] | EC50 [2] [nM] | EC50 (IFNγ secretion, read-out: IFNγ (EC50)) [nM] |
| --- | --- | --- | --- |
| CCN(C)c1c(F)c(Cl)c(-c2cn3cc(NC(=O)[C@@H]4C[C@@H]4F)nc3cn2)c2cn[nH]c12 [Example 41] | < 200 | 200 to 1000 | – |
| CCc1c(F)c(N(C)C)c2[nH]ncc2c1-c1cn2cc(NC(=O)[C@@H]3C[C@@H]3F)nc2cn1 [Example 26] | < 200 | 200 to 1000 | – |
| CC(C)N(C)c1c(F)c(Cl)c(-c2cn3cc(NC(=O)[C@@H]4C[C@@H]4F)nc3cn2)c2cn[nH]c12 [Example 62] | < 200 | 200 to 1000 | – |
| CCc1c(F)c(N(C)C)c2[nH]ncc2c1-c1ccc2nc(NC(=O)[C@@H]3C[C@@H]3F)cn2n1 [Example 7] | 200 to 1000 | 200 to 1000 | – |
| CSc1c(F)c(SC)c2[nH]ncc2c1-c1cn2cc(NC(=O)[C@@H]3C[C@@H]3F)nc2cn1 [Example 27] | < 200 | – | – |
| CCc1c(F)cc2[nH]ncc2c1-c1ccc2nc(NC(=O)[C@@H]3C[C@@H]3F)cn2n1 [Example 4] | < 200 | 200 to 1000 | – |
| CSc1c(F)c(Cl)c(-c2cn3cc(NC(=O)[C@@H]4C[C@@H]4F)nc3cn2)c2cn[nH]c12 [Example 38] | 200 to 1000 | 200 to 1000 | < 200 |
| CCOc1c(F)c(CC)c(-c2ccc3nc(NC(=O)[C@@H]4C[C@@H]4F)cn3n2)c2cn[nH]c12 [Example 13] | 200 to 1000 | 200 to 1000 | – |
| CN(C)c1c(F)c(Cl)c(-c2cn3cc(NC(=O)[C@@H]4C[C@@H]4F)nc3cn2)c2cn[nH]c12 [Example 33] | < 200 | 200 to 1000 | – |
| CC(C)c1c(F)c(Cl)c(-c2cn3cc(NC(=O)[C@@H]4C[C@@H]4F)nc3cn2)c2cn[nH]c12 [Example 64, (1S,2S)—N-(6-(5-chloro-6-fluoro-7-isopropyl-1H-indazol-4-yl)imidazo[1,2-a]pyrazin-2-yl)-2-fluorocyclopropane-1-carboxamide] | < 200 | < 200 | – |
| CCN(C)c1c(F)c(C(F)(F)F)c(-c2cn3cc(NC(=O)[C@@H]4C[C@@H]4F)nc3cn2)c2cn[nH]c12 [Example 42] | < 200 | 200 to 1000 | – |
| CN(C)c1c(F)c(C(F)(F)F)c(-c2cn3cc(NC(=O)[C@@H]4C[C@@H]4F)nc3cn2)c2cn[nH]c12 [Example 40] | < 200 | 200 to 1000 | – |
| CN(c1c(F)c(Cl)c(-c2cn3cc(NC(=O)[C@@H]4C[C@@H]4F)nc3cn2)c2cn[nH]c12)C1CC1 [Example 58] | < 200 | 200 to 1000 | – |
| CCOc1c(F)c(CC)c(-c2cn3cc(NC(=O)[C@@H]4C[C@@H]4F)nc3cn2)c2cn[nH]c12 [Example 44] | < 200 | 200 to 1000 | – |
| CC(C)Nc1c(F)c(Cl)c(-c2cn3cc(NC(=O)[C@@H]4C[C@@H]4F)nc3cn2)c2cn[nH]c12 [Example 61, (1S,2S)—N-(6-(5-chloro-6-fluoro-7-(isopropylamino)-1H-indazol-4-yl)imidazo[1,2-a]pyrazin-2-yl)-2-fluorocyclopropane-1-carboxamide] | < 200 | 200 to 1000 | – |
| CCOc1c(F)c(Cl)c(-c2cn3cc(NC(=O)[C@@H]4C[C@@H]4F)nc3cn2)c2cn[nH]c12 [Example 34] | < 200 | 200 to 1000 | – |
